A short description of experiment [1]: Inhibition of human non pancreatic secretory phospholipase A2 incubated for 30 mins by plate reader analysis.
Experiment [2] can be described thus: Binding affinity to bovine brain membrane BzR assessed as inhibition constant.

Molecules are shown by their SMILES. pIC50, pKi: −log10 of the molar value.

In turn, `COc1ccc2c(c1)c(CC(=O)O)c(C)n2Cc1ccccc1` [1-BENZYL-5-METHOXY-2-METHYL-1H-INDOL-3-YL)-ACETIC ACID] had a pIC50 in experiment [1] of 4.87.

As for `O=C(NCc1ccccc1)C(=O)c1c[nH]c2ccc([N+](=O)[O-])cc12` [N-benzyl-2-(5-nitro-1H-indol-3-yl)-2-oxoacetamide], in experiment [2], the negative-log Ki (pKi) was 6.93.

In general, pIC50 refers to the negative decadic logarithm of the IC50, by convention in mol/L. Read a high pIC50 as a small IC50. For orientation: pKi means the Ki on a negative log10 scale, so that one unit is a factor of ten.

The values above are taken from BindingDB's records for PubMed 33764065 (Niddk, 2021).
